Data taken from patent publication US20220031680A1, “Donecopride As Neuroprotective Agent In the Treatment of Neurodegenerative Diseases” (priority 2018, published 2022).
Marks after values point to notes of the source that are not given here.

How the values were obtained:
Aβ42 = Aβ42 levels in brain extracts of 5×FAD mice (ELISA); assay type: in vivo, mouse; details: brain extract; 1 mg/kg i.p. twice a week for two months, 2 to 4 months of age
Experimental: (§1) Animal experiments were carried out in accordance with the Directive by the Council of the European Communities of Nov. 24, 1986 (86/609/EEC). All efforts were made to minimize animal suffering and to reduce the number of mice used. The generation of 5×FAD mice was described in Oakley et al. (2006) J. Neurosci. 26:10129-10140. These transgenic mice overexpress both human APP (695) harboring the Swedish (K670N, M671L), Florida (1716V) and London (V7171) familial AD (FAD) mutations and human Presenilin 1 (PS1) harboring the two FAD mutations M146L and L286V. Expression of both transgenes is regulated by neuronal-specific elements of the mouse Thy1 promoter. The 5×FAD strain (B6/SJL genetic background) was maintained by crossing hemizygous transgenic mice with B6/SJL F1 breeders. The 5×FAD strain (C57BL/6J genetic background) was maintained by crossing hemizygous transgenic mice with C57BL/6J F1 breeders. All animals were genotyped by PCR using tail genomic DNA. Transgenic and WT mice were bred in our animal facility, had access to food and water ad libitum and were housed under a 12 h light-dark cycle at 22-24° C. Female 5×FAD mice were used in this study. For each experiment, the age of mice is indicated in months (with a two-week range).
(§2) Compounds were resuspended in DMSO (37.5 μg/μl, stored at −20° C.) and freshly diluted 1:250 in 0.9% NaCl prior administration. Vehicle solution (0.9% NaCl, 0.4% DMSO) was used as control.
(§3) 5×FAD mice received chronic treatments with drugs or vehicle according to 2 different protocols. In each experiment, drugs or vehicle solution were administered i.p. twice a week (1 mg/kg). In “Protocol 1”, mice (n=6-7 mice per group) were treated with compounds for two months, from 2 to 4 months of age. In “Protocol 2”, mice (n=7) were treated with compounds for three months, from 1 month to 4 months of age. At the end of each protocol, mice were anesthetized with a mixture of 100 mg/kg ketamine and 10 mg/kg xylazine in saline solution and perfused transcardially with PBS. Brains were quickly isolated on ice, the olfactory bulbs and cerebellum removed and the two hemispheres divided. […]
(§4) ELISA kits from IBL International (Hamburg, Germany) for the dosage of Aβ40 (human amyloid β (1-40) assay kit, #27713) or Aβ42 (human amyloid β (1-42) assay kit, #27719) were used according to the manufacturer's instructions. Reactions were read at 620 nm and 450 nm using an Infinite 2000 luminescence counter. The obtained values were normalized to the protein concentration of each sample, measured using a BCA protein assay (Sigma-Aldrich). […]
(§5) Aβ40 and Aβ42 were quantified from brain extract in soluble and insoluble fractions. […]

GFAP = assay: Astrogliosis (GFAP staining) in 5×FAD mouse brain; assay type: in vivo; details: 1 mg/kg twice a week for 3 months; for GFAP staining in frontal cortex or hippocampus: compared to controls; for decrease of GFAP staining in entorhinal brain slices: compared to vehicle
Experimental: 5×FAD mice received chronic treatments with drugs or vehicle according to 2 different protocols. In each experiment, drugs or vehicle solution were administered i.p. twice a week (1 mg/kg). In “Protocol 1”, mice (n=6-7 mice per group) were treated with compounds for two months, from 2 to 4 months of age. In “Protocol 2”, mice (n=7) were treated with compounds for three months, from 1 month to 4 months of age. At the end of each protocol, mice were anesthetized with a mixture of 100 mg/kg ketamine and 10 mg/kg xylazine in saline solution and perfused transcardially with PBS. Brains were quickly isolated on ice, the olfactory bulbs and cerebellum removed and the two hemispheres divided. One hemisphere was frozen on dry ice and stored at −80° C. for biochemical analysis, while the other was post-fixed in 4% PFA for immunohistochemistry (IHC).
Thirty-micrometer-thick sections were cut using a vibratome (Microm HM 650V, Thermo Scientific, Saint Herblain, France) and stored in cryoprotectant medium at −20° C. For the labeling of amyloid plaques, free-floating tissue sections of frontal cortex, hippocampus and entorhinal cortex (coordinates from the bregma: frontal cortex=1.98 mm, hippocampus=−1.94 mm, entorhinal cortex=−3.08 mm) were extensively washed in PBS and then incubated in blocking solution (PBS; 3% BSA; 0.1% Triton X-100) for 1 h. Sections were stained with Hoechst dye (1:1000, Life Technologies, Saint Aubin, France) for 15 minutes to detect cell nuclei and then with freshly prepared thioflavin T solution (#T3516-5G, Sigma-Aldrich) (final concentration: 0.01 mg/ml in blocking buffer) for 15 minutes. After washing in 70% ethanol for 5 minutes, samples were mounted on poly-lysine slides with coverslips. For GFAP (glial fibrillary acidic protein) staining, free-floating brain sections were blocked as before and incubated with polyclonal rabbit anti-GFAP (1:1000, Z0334, Dako, Les Ullis, France) at 4° C. overnight. After thioflavin T staining and washing with 70% ethanol, the secondary Alexafluor 594 goat anti-rabbit antibody (1:1000, A11012, Life Technologies) was added for 2 h. PBS washes and mounting were performed as described before.
Images were acquired with an Axiolmager Z1 microscope (Carl Zeiss S.A.S., Marly le Roi, France). Analysis of thioflavin T staining was performed blindly and data are presented as the mean number of particles per mm^2 in two to three tissue sections from the same brain area/animal (Image J software). GFAP expression was quantified using Image J software and results are expressed as area fractions.
28 female 5×FAD mice (C57BL/6J genetic background) were used in this study. Mice received vehicle or compounds (1 mg/kg) i.p., twice a week for three months, from 1 to 4 months of age.

Aβ40 = Aβ40 levels in brain extracts of 5×FAD mice (ELISA); assay type: in vivo, mouse; details: brain extract; 1 mg/kg i.p. twice a week for two months, 2 to 4 months of age
Experimental: as §1, §2, §3, §4, §5

| Compound | Aβ42, insoluble fraction (% of controls) (Aβ42) | Aβ42, soluble fraction (% of controls) (Aβ42) | GFAP staining in frontal cortex or hippocampus (GFAP) | decrease of GFAP staining in entorhinal brain slices (GFAP) [%] | Aβ40, insoluble fraction (% of controls) (Aβ40) | Aβ40, soluble fraction (% of controls) (Aβ40) |
| --- | --- | --- | --- | --- | --- | --- |
| COc1cc(N)c(Cl)cc1C(=O)CCC1CCN(CC2CCCCC2)CC1 [Donecopride] | 67.85* % of controls | 65.93* % of controls | not significantly different | 54±10 | 79.97 % of controls | 110.18 % of controls |
| COc1cc(N)c(F)cc1C(=O)CCC1CCN(CC2CCCCC2)CC1 [Flucopride] | 73.16 % of controls | 30.19**** % of controls | not significantly different | 51±5 | 97.16 % of controls | 110.51 % of controls |
